Data as given in PubChem BioAssay (NCI).
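48-hour exposure; five concentrations; linearly interpolated endpoints. At the GI50, growth is halved. TGI is the concentration that stops growth completely.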

Experiments:
Experiment in all cases: DTP human tumour cell line panel, 48 h
HCC-2998 colon = tested on: HCC-2998 colon
K-562 leukemia = tested on: K-562 leukemia
MOLT-4 leukemia = tested on: MOLT-4 leukemia
OVCAR-3 ovarian = tested on: OVCAR-3 ovarian
OVCAR-4 ovarian = tested on: OVCAR-4 ovarian
OVCAR-5 ovarian = tested on: OVCAR-5 ovarian
SF-295 CNS = tested on: SF-295 CNS
SK-OV-3 ovarian = tested on: SK-OV-3 ovarian
SW-620 colon = tested on: SW-620 colon
UACC-257 melanoma = tested on: UACC-257 melanoma

## C=C1C(O)CC[C@]2(C)C1C1OC(C)(C)O[C@]13CC(=O)C(C)=C([C@H]1OC(C)(C)OC12)C3(C)C (stereo not given in full)
HCC-2998 colon
  TGI: > 100 µM
K-562 leukemia
  TGI: > 100 µM
MOLT-4 leukemia
  TGI: > 100 µM
OVCAR-3 ovarian
  TGI: > 100 µM
OVCAR-4 ovarian
  TGI: > 100 µM
OVCAR-5 ovarian
  TGI: > 100 µM
SF-295 CNS
  TGI: > 100 µM
SK-OV-3 ovarian
  TGI: > 100 µM
SW-620 colon
  TGI: > 100 µM
UACC-257 melanoma
  TGI: > 100 µM

## O=C1OCC2=C1C(c1ccccc1)c1cc3c(cc1N2CCO)OCO3 (stereo not given)
HCC-2998 colon
  GI50: 9.91 µM
  TGI: > 50 µM
K-562 leukemia
  GI50: 1.91 µM
  TGI: > 50 µM
MOLT-4 leukemia
  GI50: > 50 µM
  TGI: > 50 µM
OVCAR-3 ovarian
  GI50: 1.15 µM
  TGI: 2.6 µM
OVCAR-4 ovarian
  GI50: 4.38 µM
  TGI: > 50 µM
OVCAR-5 ovarian
  GI50: 13.4 µM
  TGI: > 50 µM
SF-295 CNS
  GI50: 1.25 µM
  TGI: 3.53 µM
SK-OV-3 ovarian
  GI50: 8.28 µM
  TGI: > 50 µM
SW-620 colon
  GI50: 2.18 µM
  TGI: > 50 µM
UACC-257 melanoma
  GI50: > 50 µM
  TGI: > 50 µM

## O=c1oc2ccccc2[n+]([O-])c1-c1ccccc1
HCC-2998 colon
  TGI: > 100 µM
K-562 leukemia
  TGI: > 100 µM
MOLT-4 leukemia
  TGI: > 100 µM
OVCAR-3 ovarian
  TGI: > 100 µM
OVCAR-4 ovarian
  TGI: > 100 µM
OVCAR-5 ovarian
  TGI: > 100 µM
SF-295 CNS
  TGI: > 100 µM
SK-OV-3 ovarian
  TGI: > 100 µM
SW-620 colon
  TGI: > 100 µM
UACC-257 melanoma
  TGI: > 100 µM

## Cc1ccc(NC(=O)c2cc(S(=O)(=O)N3C(=O)NC(=O)NS3(=O)=O)c(S)cc2Cl)cc1
HCC-2998 colon
  GI50: 28.5 µM
  TGI: 60.5 µM
K-562 leukemia
  GI50: 22.2 µM
  TGI: 68.7 µM
MOLT-4 leukemia
  GI50: 15.3 µM
  TGI: 44 µM
OVCAR-3 ovarian
  GI50: 16.5 µM
  TGI: 36.4 µM
OVCAR-4 ovarian
  GI50: 47.6 µM
  TGI: > 100 µM
OVCAR-5 ovarian
  GI50: 56.5 µM
  TGI: > 100 µM
SF-295 CNS
  GI50: 26.2 µM
  TGI: 55 µM
SK-OV-3 ovarian
  GI50: 67.8 µM
  TGI: > 100 µM
SW-620 colon
  GI50: 31.6 µM
  TGI: > 100 µM
UACC-257 melanoma
  GI50: 17.2 µM
  TGI: 46.8 µM

## O=C(O)[C@@H](Cc1ccc2ccccc2c1)NC(=O)n1c2ccccc2c2ccccc21
HCC-2998 colon
  GI50: 3.91 µM
  TGI: 19.1 µM
K-562 leukemia
  GI50: 1.41 µM
  TGI: > 100 µM
MOLT-4 leukemia
  GI50: 4.12 µM
  TGI: 20.7 µM
OVCAR-3 ovarian
  GI50: 1.81 µM
  TGI: 6.78 µM
OVCAR-4 ovarian
  GI50: 6.8 µM
  TGI: > 100 µM
OVCAR-5 ovarian
  GI50: 5.05 µM
  TGI: > 100 µM
SF-295 CNS
  GI50: 2.29 µM
  TGI: 8.97 µM
SK-OV-3 ovarian
  GI50: 5.64 µM
  TGI: 44.5 µM
SW-620 colon
  GI50: 4.04 µM
  TGI: > 100 µM
UACC-257 melanoma
  GI50: 11.9 µM
  TGI: > 100 µM

## COc1ccc(C(=O)NCCN(C)C)c2nc3ccccc3nc12
HCC-2998 colon
  TGI: 26.3 µM
K-562 leukemia
  TGI: 5.72 µM
MOLT-4 leukemia
  TGI: 7.3 µM
OVCAR-3 ovarian
  TGI: > 29.3 µM
OVCAR-4 ovarian
  TGI: 16.8 µM
OVCAR-5 ovarian
  TGI: 16 µM
SF-295 CNS
  TGI: > 36.1 µM
SK-OV-3 ovarian
  TGI: > 63.2 µM
SW-620 colon
  TGI: > 30.5 µM
UACC-257 melanoma
  TGI: 13 µM

## O=C(Nc1ccc(Cl)c(Cl)c1)NS(=O)(=O)c1cnccc1Oc1ccc(F)cc1
HCC-2998 colon
  GI50: 4.43 µM
  TGI: 38.1 µM
K-562 leukemia
  GI50: 3.27 µM
  TGI: > 100 µM
MOLT-4 leukemia
  GI50: 2.68 µM
  TGI: 8.58 µM
OVCAR-3 ovarian
  GI50: 2.79 µM
  TGI: 8.11 µM
OVCAR-4 ovarian
  GI50: 3.26 µM
  TGI: > 100 µM
OVCAR-5 ovarian
  GI50: 6.28 µM
  TGI: 95.2 µM
SF-295 CNS
  GI50: 1.65 µM
  TGI: 4.8 µM
SK-OV-3 ovarian
  GI50: 3.87 µM
  TGI: 18.2 µM
SW-620 colon
  GI50: 3.01 µM
  TGI: > 100 µM
UACC-257 melanoma
  GI50: 4.72 µM
  TGI: 24.4 µM

## O=C(/C=C/c1ccccc1)c1ccc(NCc2nc3ccccc3[nH]2)cc1
HCC-2998 colon
  TGI: 4.2 µM
K-562 leukemia
  TGI: > 26.1 µM
MOLT-4 leukemia
  TGI: 32.3 µM
OVCAR-3 ovarian
  TGI: 9.57 µM
OVCAR-4 ovarian
  TGI: 22.8 µM
OVCAR-5 ovarian
  TGI: 23.2 µM
SF-295 CNS
  TGI: 13.1 µM
SK-OV-3 ovarian
  TGI: 18.1 µM
SW-620 colon
  TGI: 8.43 µM
UACC-257 melanoma
  TGI: 13.2 µM

## O=C(N/N=C/c1ccccc1O)c1ccccc1
HCC-2998 colon
  GI50: 0.6 µM
  TGI: 8.34 µM
K-562 leukemia
  GI50: 3.59 µM
  TGI: > 100 µM
MOLT-4 leukemia
  GI50: 0.503 µM
  TGI: > 100 µM
OVCAR-3 ovarian
  GI50: 0.669 µM
  TGI: > 100 µM
OVCAR-4 ovarian
  GI50: 0.725 µM
  TGI: > 100 µM
OVCAR-5 ovarian
  GI50: 2.5 µM
  TGI: > 100 µM
SF-295 CNS
  GI50: 1.1 µM
  TGI: 52.1 µM
SK-OV-3 ovarian
  GI50: 5.14 µM
  TGI: > 100 µM
SW-620 colon
  GI50: 2.84 µM
  TGI: > 100 µM
UACC-257 melanoma
  GI50: 3.47 µM
  TGI: 37.1 µM
